Experiment [1] has as its target T1, 5-HT2 serotoninergic receptors (Rattus norvegicus, UniProt P14842).
T1 construct: on rat frontal cortex preparations; from tissue; host or cells: rat frontal cortex
Nature of the experiment: in-vitro affinity for 5-HT2 serotoninergic receptors, by measuring the displacement of aminoiodoketanserin, on rat frontal cortex preparations. The conditions noted are these: read-out: IC50 (concentration inhibiting binding of the labelled ligand by 50%) (converted). The protocol:
The in-vitro affinity of the compounds of the invention was determined
for 5-HT2 serotoninergic receptors, by measuring the displacement of aminoiodoketanserin, on rat frontal cortex preparations, […]

On the set-up of experiment [2]: species or system Rats or mice. The conditions noted are these: in vivo.

Read-outs that look alike come from different tables or passages of the source.

T1 sequence (P14842 whole entry): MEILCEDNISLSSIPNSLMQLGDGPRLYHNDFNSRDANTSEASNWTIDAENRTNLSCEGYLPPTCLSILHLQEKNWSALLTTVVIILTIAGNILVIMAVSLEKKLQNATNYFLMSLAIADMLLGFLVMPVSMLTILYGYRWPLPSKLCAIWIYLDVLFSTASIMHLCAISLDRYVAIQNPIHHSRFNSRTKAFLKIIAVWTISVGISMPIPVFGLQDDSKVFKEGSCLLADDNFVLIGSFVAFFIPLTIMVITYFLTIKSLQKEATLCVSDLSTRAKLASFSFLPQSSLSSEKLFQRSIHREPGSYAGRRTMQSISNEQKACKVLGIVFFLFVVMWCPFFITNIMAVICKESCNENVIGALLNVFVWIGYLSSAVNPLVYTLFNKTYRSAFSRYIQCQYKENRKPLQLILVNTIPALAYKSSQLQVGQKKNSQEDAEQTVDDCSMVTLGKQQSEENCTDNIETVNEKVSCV

As to `O=C(c1ccc(F)cc1)C1CCN(CCn2c(=O)sc3ccccc32)CC1` [Example 1, 3-{2-[4-(4-FLUOROBENZOYL)PIPERIDINO]ETHYL}BENZOTHIAZOLIN-2-ONE], in experiment [1], the IC50 is 1 nM.
On the same count and under the same terms, next, `COc1ccccc1N1CCN(CCCCc2ccc3c(c2)sc(=O)n3CCN2CCC(C(=O)c3ccc(F)cc3)CC2)CC1` [Example 3, 3-{2-[4-(4-FLUOROBENZOYL)PIPERIDINO]ETHYL}-6-(4-[4-(2-METHOXY-PHENYL)PIPERAZINYL]BUTYL}BENZOTHIAZOLIN-2-ONE]: 1 nM; `O=C(c1ccc(F)cc1)C1CCN(CCn2c(=O)sc3cc(CCCCN4CCOCC4)ccc32)CC1` [Example 4, 3-{2-[4-(4-FLUOROBENZOYL)PIPERIDINO]ETHYL}-6-(4-MORPHOLINOBUTYL)BENZOTHIAZOLIN-2-ONE]: 0.5 nM.
As for `Cn1c(=O)sc2cc(CCN3CCC(C(=O)c4ccc(F)cc4)CC3)ccc21` [Example 48, 3-METHYL-6-{2-[4-(4-FLUOROBENZOYL)PIPERIDINO]ETHYL}BENZOTHIAZOLIN-2-ONE], in experiment [2], the “inhibition of reaction time which the animal takes to lick its paws” value was 175%.
In the case of `CN1CC[C@]23c4c5ccc(O)c4O[C@H]2[C@@H](O)C=C[C@H]3[C@H]1C5` [morphine, reference compound], the “inhibition of reaction time which the animal takes to lick its paws” value in experiment [2] (ip) was 129%.

For the origin of these results see US5534517A, “(Aryl(alkyl)carbonyl)-heterocyclic compounds and their use in the treatment of anxiety and depression” (Adir Et Compagnie, priority 1993, dated 1996).
